“Also recorded” adds a separate entry of the source.
Experiments:
Format in all cases: cell-based, murine
[1] = system: MHC class I H-2Kb on DC2.4; test: Surface MHC class I H-2Kb on DC2.4 (AF6-88.5.5.3 flow cytometry); conditions: DC2.4, 25 μg/mL
Experimental: By using an MHC class I H-2K^b specific antibody, a relative comparison of the surface MHC class I was measured before and after BzFβ treatment of DC2.4 and IMG cells. […] Cells were centrifuged and washed using cold FACS buffer (DPBS with 5% FBS, 2 mM EDTA, 0.1% sodium azide). Cells were blocked with Fc block (bioLegend™; cat. no. 101320) for 10 min to 15 min to inhibit non-specific binding, followed by staining with fluorophore-conjugated antibodies; one set of cells was stained with the PE-labeled MHC/SIINFEKL specific antibody (clone 25-D1.16, Invitrogen™, Thermo Fisher Scientific Inc., Waltham, MA; cat. no. 12-5743-82), and the other set was stained with the PE-labeled MHC class I H-2Kb specific antibody (AF6-88.5.5.3,Invitrogen™, Thermo Fisher Scientific Inc., Waltham, MA; cat. no. 12-5958-82) PE-labeled MHC class I H-2kb specific (clone AF6-88.5.5.3; Invitrogen™, Thermo Fisher Scientific Inc., Waltham, MA; cat. no. 12-5958-82), for 30 min at 4° C. After washing, the cells were subjected to flow cytometric analysis with the Attune NxT Flow Cytometer (Invitrogen). Cells were gated based on live single-cell populations and positives were assessed using isotype controls and fluor-minus-one analysis when needed. Data were analyzed using the Attune NxT software or FlowJo versions 10.7 and 10.8.

B3Z cells = test: Direct treatment of B3Z cells; conditions: BzFβ alone; data not shown
[2] = system: DC2.4 cells (B3Z activation); test: Cross-presentation of whole OVA by DC2.4 to B3Z; conditions: co-treatment 6 h, 0.5 mg/mL OVA; p<0.001 all doses
Experimental: DC2.4 cells (5×10^5 cells/ml) were seeded at 100 μL/well in 96 well plates and cultured overnight. The cells were washed with DPBS, and co-exposed to 0.5 mg/mL soluble whole OVA, along with increasing concentrations of BzFβ for 6 h, The cells were then co-cultured with equal number of B3Z cells at 37° C. for 19 h.

H-2Db on DC2.4 = target: T1, H-2Db on DC2.4 (Mus musculus, UniProt P01899); test: FITC-labeled HPV peptide RAHYNIVTF binding to DC2.4; conditions: 25 µg/mL BzFβ 4 or 24 h, 1 h pulse
T1 construct: DC2.4 are a C57Bl/6 lineage murine cell line and as such they express MHC class I H-2Kb and H-2Db; endogenous in cells; host or cells: DC2.4
Experimental: For peptide loading studies, cultured cells were treated for various times as indicated in results and figure legends. Cells were centrifuged and washed using cold FACS buffer (DPBS with 5% FBS, 2 mM EDTA, 0.1% sodium azide). Cells were blocked using Fc block (bioLegend™; cat. no. 101320) for 10 min to 15 min to inhibit non-specific binding, followed by staining with fluorophore-conjugated antibody PE-labeled anti-MHC I/SIINFEKL (clone 25-D1.16, Invitrogen 12-5743-82), for 30 min at 4° C. For N-terminal FITC labeled H-2Db peptide RAHYNIVTF (AnaSpec Inc., Fremont, CA; cat. no.) cells were incubated with peptide for 1-4 h before washing and analysis. After washing, the cells were subjected to flow cytometric analysis with the Attune NxT Flow Cytometer (Invitrogen™). Cells were gated based on live single-cell populations and positives were assessed using isotype controls and fluor-minus-one analysis when needed. Data were analyzed using the Attune NxT software or FlowJo versions 10.7 and 10.8.
Cells were cultured as previously described and treated for various times as indicated in results and figure legends. […] Cells were gated based on live single-cell populations and positives were assessed using isotype controls and fluor-minus-one analysis when needed. Data were analyzed using the Attune NxT software or FlowJo versions 10.7 and 10.8. […]

[3] = target: T2, MHC class I/SIINFEKL complex on IMG cells (Mus musculus, UniProt P01901); test: SIINFEKL binding to IMG cells, flow cytometry with 25-D1.16 antibody; conditions: 25 μg/mL BzFβ 0-4 h
T2 construct: host or cells: IMG cell line
Experimental: By using an MHC class I H-2K^b specific antibody, a relative comparison of the surface MHC class I was measured before and after BzFβ treatment of DC2.4 and IMG cells. These cells were treated with 25 μg/mL BzFβ for 0-4 h. Cells were centrifuged and washed using cold FACS buffer (DPBS with 5% FBS, 2 mM EDTA, 0.1% sodium azide). Cells were blocked with Fc block (bioLegend™; cat. no. 101320) for 10 min to 15 min to inhibit non-specific binding, followed by staining with fluorophore-conjugated antibodies; one set of cells was stained with the PE-labeled MHC/SIINFEKL specific antibody (clone 25-D1.16, Invitrogen™, Thermo Fisher Scientific Inc., Waltham, MA; cat. no. 12-5743-82), and the other set was stained with the PE-labeled MHC class I H-2Kb specific antibody (AF6-88.5.5.3,Invitrogen™, Thermo Fisher Scientific Inc., Waltham, MA; cat. no. 12-5958-82), for 30 min at 4° C. After washing, the cells were subjected to flow cytometric analysis with the Attune NxT Flow Cytometer (Invitrogen). Cells were gated based on live single-cell populations and positives were assessed using isotype controls and fluor-minus-one analysis when needed. Data were analyzed using the Attune NxT software or FlowJo versions 10.7 and 10.8.

T1 sequence (P01899 25-362): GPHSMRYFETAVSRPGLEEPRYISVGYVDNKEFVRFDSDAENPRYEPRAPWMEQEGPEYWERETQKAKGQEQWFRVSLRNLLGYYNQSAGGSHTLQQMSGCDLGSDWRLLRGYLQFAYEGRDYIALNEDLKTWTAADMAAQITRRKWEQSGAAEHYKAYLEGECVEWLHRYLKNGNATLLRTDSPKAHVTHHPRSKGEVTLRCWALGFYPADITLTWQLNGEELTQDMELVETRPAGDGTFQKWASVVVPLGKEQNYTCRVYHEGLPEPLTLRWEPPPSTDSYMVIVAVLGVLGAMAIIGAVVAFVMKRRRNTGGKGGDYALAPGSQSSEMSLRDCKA
T1 sequence (P01887 21-119 partner): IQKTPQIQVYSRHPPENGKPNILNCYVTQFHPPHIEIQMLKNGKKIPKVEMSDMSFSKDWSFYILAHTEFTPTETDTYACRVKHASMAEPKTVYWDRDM
T2 sequence (P01901 22-369): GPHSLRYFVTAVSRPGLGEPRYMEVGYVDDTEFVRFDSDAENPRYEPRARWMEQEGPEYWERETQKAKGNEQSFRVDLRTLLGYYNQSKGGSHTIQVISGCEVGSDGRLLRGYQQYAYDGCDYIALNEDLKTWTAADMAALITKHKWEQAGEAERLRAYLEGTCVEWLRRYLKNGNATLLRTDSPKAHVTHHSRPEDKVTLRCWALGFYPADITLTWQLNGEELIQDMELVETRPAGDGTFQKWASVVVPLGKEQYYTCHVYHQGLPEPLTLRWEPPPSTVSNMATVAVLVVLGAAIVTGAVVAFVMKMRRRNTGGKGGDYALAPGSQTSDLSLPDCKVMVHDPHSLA
T2 sequence (P01887 21-119 partner): as the sequence (P01887 21-119 partner) above

O=C(O)/C=C/c1ccc2occc2c1 [BzFβ, (2E)-3-(1-benzofuran-5-yl)prop-2-enoic acid]
overall surface expression (MFI) of MHC class I ([1]; 1-4 h): no significant effect
overall surface expression (MFI) of MHC class I ([1]; 24 h): significant increase
effect of direct treatment on B3Z viability or activation (B3Z cells): no effect on cell viability or cell activation
B3Z response, cross-presentation of OVA [2]: significantly enhance the B3Z response
binding of FITC labeled HPV peptide to H-2Db (H-2Db on DC2.4): enhance peptide binding on both haplotypes; also recorded: significant increase in peptide binding
binding of SIINFEKL to surface MHC class I [3]: able to enhance the binding of SIINFEKL

— US20250381165A1, “Method of Use for Benzofuran Compounds” (Tampa Bay Research Institute, Inc., priority 2024, published 2025)
